The values that follow come from patent US10457687B2, “Aminoacid derivatives, a process for their preparation and pharmaceutical compositions containing them” (LES LABORATOIRES SERVIER, priority 2015, dated 2019).

For orientation: IC50 means the concentration needed to halve the response being measured.

Mcl-1 protein, sequence (Q07820 whole entry): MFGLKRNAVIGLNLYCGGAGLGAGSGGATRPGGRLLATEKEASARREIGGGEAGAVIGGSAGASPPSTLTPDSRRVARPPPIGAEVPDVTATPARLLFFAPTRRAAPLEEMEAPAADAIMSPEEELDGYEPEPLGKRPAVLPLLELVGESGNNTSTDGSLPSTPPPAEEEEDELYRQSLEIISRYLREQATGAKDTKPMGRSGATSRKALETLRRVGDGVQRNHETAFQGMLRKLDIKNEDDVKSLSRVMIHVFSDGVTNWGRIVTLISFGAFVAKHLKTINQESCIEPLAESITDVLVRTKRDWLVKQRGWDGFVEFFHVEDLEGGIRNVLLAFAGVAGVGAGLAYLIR

One assay has as its target Mcl-1 protein (Homo sapiens, UniProt Q07820). Kind of assay: Inhibition of Mcl-1 by the fluorescence polarisation technique (Method 1 or Method 2). In kind it is binding. The following applies: fluorescence polarisation, Fluorescein labelled ligand; Method 1 (not underlined) or Method 2 (underlined); read-out: IC50 (μM) Mcl-1 FP. As to the method:
The relative binding potency of each compound was determined via Fluorescence Polarisation (FP).
An 11 point serial dilution of each compound was prepared in DMSO and 2 μl transferred into flat bottomed, low binding, 384-well plate (final DMSO concentration 5%). 38 μl of buffer (10 mM 4-(2-hydroxyethyl)-1-piperazineethanesulfonic acid [HEPES], 150 mM NaCl, 0.05% Tween 20, pH 7.4), containing the Fluorescein labelled ligand (final concentration 1 nM) and Mcl-1 protein (final concentration 5 nM) was then added.
An 11 point serial dilution of each compound was prepared in DMSO and 2 μl transferred into flat bottomed, low binding, 384-well plate (final DMSO concentration 5%). 38 μl of buffer (20 mM Na2HPO4, 1 mM EDTA, 50 mM NaCl, pH 7.4), containing the Fluorescein labelled ligand (final concentration 10 nM) and Mcl-1 protein (final concentration 10 nM) was then added.
In general terms: Fluorescence polarisation rises when a labelled molecule tumbles more slowly, as on binding a larger partner.
For `CCc1sc2ncnc(N[C@H](Cc3c[nH]cn3)C(=O)O)c2c1-c1cccc2ccccc12` [Example 190, N-[6-ethyl-5-(naphthalen-1-yl)thieno[2,3-d]pyrimidin-4-yl]-D-histidine], the IC50 was found to be 34.6 µM. Consider `CCc1sc2ncnc(NC(Cc3ccccc3)C(=O)O)c2c1-c1ccc(OCCCN(C)C)c(Cl)c1C` [Example 60, N-((5Sa)-5-{3-chloro-4-[3-(dimethylamino)propoxy]-2-methylphenyl}-6-ethylthieno[2,3-d]pyrimidin-4-yl)-D-phenylalanine], for which the IC50 was 0.092 µM. Same read-out and setting: in the case of `CC(=O)c1sc2ncnc(NC(Cc3ccccc3)C(=O)O)c2c1-c1cccc2ccccc12` [Example 200, N-[6-acetyl-(5Ra)-5-(naphthalen-1-yl)thieno[2,3-d]pyrimidin-4-yl]-D-phenylalanine] it was 5.44 µM; in that of `CCc1sc2ncnc(NC(Cc3ccccc3)C(=O)O)c2c1-c1cccc(F)c1C` [Example 70, N-[6-ethyl-(5Ra)-5-(3-fluoro-2-methylphenyl)thieno[2,3-d]pyrimidin-4-yl]-D-phenylalanine], 0.974 µM. As to `CCc1sc2ncnc(NC(Cc3ccccc3)C(=O)O)c2c1-c1cccc2ccn(C)c12` [Example 84, N-[6-ethyl-(5Ra)-5-(1-methyl-1H-indol-7-yl)thieno[2,3-d]pyrimidin-4-yl]-D-phenylalanine], the IC50 stood at 4.02 µM.

Regarding `CC(C)c1sc2ncnc(N[C@H](Cc3ccccc3)C(=O)O)c2c1-c1cccc2ccccc12` (single isomer, unassigned) [Example 202, N-[5-(naphthalen-1-yl)-6-(propan-2-yl)thieno[2,3-d]pyrimidin-4-yl]-D-phenylalanine], the 50% inhibitory concentration (IC50) was found to be 0.751 µM. For `CCc1sc2ncnc(NC(Cc3ccccc3OCC(=O)N(C)C)C(=O)O)c2c1-c1cccc(Cl)c1C` [Example 142, N-[(5Sa)-5-(3-chloro-2-methylphenyl)-6-ethylthieno[2,3-d]pyrimidin-4-yl]-2-[2-(dimethylamino)-2-oxoethoxy]-D-phenylalanine], the IC50 stood at 0.335 µM.

Consider `C=C(C)c1sc2ncnc(NC(Cc3ccccc3)C(=O)O)c2c1-c1cccc2ccccc12` [Example 106, N-[(5Sa)-5-(naphthalen-1-yl)-6-(prop-1-en-2-yl)thieno[2,3-d]pyrimidin-4-yl]-D-phenylalanine], for which the IC50 was 0.065 µM.

For the molecule `Cc1sc2ncnc(N[C@H](Cc3ccccc3)C(=O)O)c2c1-c1cccc2ccccc12` [Example 196, N-[6-methyl-5-(naphthalen-1-yl)thieno[2,3-d]pyrimidin-4-yl]-D-phenylalanine], the IC50 is 2.91 µM. Take `CCc1sc2ncnc(NC(Cc3ccccc3OCCC3CCCC3)C(=O)O)c2c1-c1cccc(Cl)c1C` [Example 144, N-[(5Sa)-5-(3-chloro-2-methylphenyl)-6-ethylthieno[2,3-d]pyrimidin-4-yl]-2-(2-cyclopentylethoxy)-D-phenylalanine]: the IC50 was 0.154 µM. On the same count and under the same terms, under `O=C(O)[C@@H](Cc1ccccc1)Nc1ncnc2sc(C(F)F)c(-c3cccc4ccccc34)c12` (single isomer, unassigned) [Example 207, N-[6-(difluoromethyl)-5-(naphthalen-1-yl)thieno[2,3-d]pyrimidin-4-yl]-D-phenylalanine] stands 0.136 µM. The same measure, in the same setting: under `CCc1sc2ncnc(NC(Cc3ccccc3)C(=O)O)c2c1-c1cccc2ccn(C)c12` [Example 83, N-[6-ethyl-(5Sa)-5-(1-methyl-1H-indol-7-yl)thieno[2,3-d]pyrimidin-4-yl]-D-phenylalanine] stands 0.258 µM; under `O=C(O)[C@@H](Cc1ccccc1)Nc1ncnc2sc(I)c(-c3cccc4ccccc34)c12` [Example 211, N-[6-iodo-5-(naphthalen-1-yl)thieno[2,3-d]pyrimidin-4-yl]-D-phenylalanine], 0.668 µM; under `CCc1sc2ncnc(NC(Cc3ccccc3C(N)=O)C(=O)O)c2c1-c1cccc(Cl)c1C` [Example 134, 2-carbamoyl-N-[(5Sa)-5-(3-chloro-2-methylphenyl)-6-ethylthieno[2,3-d]pyrimidin-4-yl]-D-phenylalanine], 0.176 µM.

In the case of `CCc1sc2ncnc(NC(Cc3cccnc3)C(=O)O)c2c1-c1cccc2ccccc12` [Example 163, N-[6-ethyl-(5Ra)-5-(naphthalen-1-yl)thieno[2,3-d]pyrimidin-4-yl]-3-pyridin-3-yl-D-alanine], the IC50 worked out at 8.37 µM. With `CCc1sc2ncnc(N[C@](C)(Cc3ccccc3)C(=O)O)c2c1-c1cccc(Cl)c1C` [Example 119, N-[5-(3-chloro-2-methylphenyl)-6-ethylthieno[2,3-d]pyrimidin-4-yl]-alpha-methyl-D-phenylalanine], the IC50 was determined as 1.46 µM.

As to `CCc1sc2ncnc(NC(Cc3ccccc3)C(=O)O)c2c1-c1ccc(OCCO)c(Cl)c1C` [Example 56, N-{(5Sa)-5-[3-chloro-4-(2-hydroxyethoxy)-2-methylphenyl]-6-ethylthieno[2,3-d]pyrimidin-4-yl}-D-phenylalanine], the IC50 came out at 0.019 µM. The same measure, in the same setting: under `CCc1sc2ncnc(NC(Cc3ccccc3)C(=O)O)c2c1-c1cccc(OC)c1C` [Example 75, N-[6-ethyl-(5Sa)-5-(3-methoxy-2-methylphenyl)thieno[2,3-d]pyrimidin-4-yl]-D-phenylalanine] stands 0.28 µM; under `CCc1sc2ncnc(NC(Cc3ccccc3)C(=O)O)c2c1-c1ccc(OCCCN2CCN(C)CC2)c(Cl)c1C` [Example 64, N-((5Sa)-5-{3-chloro-2-methyl-4-[3-(4-methylpiperazin-1-yl)propoxy]phenyl}-6-ethylthieno[2,3-d]pyrimidin-4-yl)-D-phenylalanine], 0.025 µM. On to `CCc1sc2ncnc(NC(Cc3ccccc3)C(=O)O)c2c1-c1cccc2[nH]ccc12` [Example 74, N-[6-ethyl-(5Ra)-5-(1H-indol-4-yl)thieno[2,3-d]pyrimidin-4-yl]-D-phenylalanine], for which the IC50 was determined as 0.621 µM. Still for that read-out and setting: under `CCc1sc2ncnc(NC(Cc3ccccc3)C(=O)O)c2c1-c1cccc(OC)c1C` [Example 76, N-[6-ethyl-(5Ra)-5-(3-methoxy-2-methylphenyl)thieno[2,3-d]pyrimidin-4-yl]-D-phenylalanine] stands 3.18 µM; under `CCc1sc2ncnc(N[C@H](Cc3ccccc3Cl)C(=O)O)c2c1-c1cccc2ccccc12` [Example 183, 2-chloro-N-[6-ethyl-5-(naphthalen-1-yl)thieno[2,3-d]pyrimidin-4-yl]-D-phenylalanine], 2.04 µM. As for `CCc1sc2ncnc(NC(Cc3ccccc3)C(=O)O)c2c1-c1cccc2c1c(Cl)cn2CCN1CCN(C)CC1` [Example 238, N-((5Sa)-5-{3-chloro-1-[2-(4-methylpiperazin-1-yl)ethyl]-1H-indol-4-yl}-6-ethyl-thieno[2,3-d]pyrimidin-4-yl)-D-phenylalanine], the IC50 is 2.78 µM.

Turning to `O=C(O)C(Cc1ccccc1)Nc1ncnc2sc(CO)c(-c3cccc4ccccc34)c12` [Example 198, N-[6-(hydroxymethyl)-(5Sa)-5-(naphthalen-1-yl)thieno[2,3-d]pyrimidin-4-yl]-D-phenylalanine], the IC50 came out at 9.86 µM.

The same assay, now with this note: partial inhibitors; @ 10 μM test compound.
With `CC#Cc1sc2ncnc(N[C@H](Cc3ccccc3OCc3ccnn3C(C)(C)C)C(=O)OCC)c2c1-c1ccc(OCCN2CCN(C)CC2)c(Cl)c1C` [Example 257, ethyl 2-[(1-tert-butyl-1H-pyrazol-5-yl)methoxy]-N-[(5Sa)-5-{3-chloro-2-methyl-4-[2-(4-methylpiperazin-1-yl)ethoxy]phenyl}-6-(prop-1-yn-1-yl)thieno[2,3-d]pyrimidin-4-yl]-D-phenylalaninate], the “percentage fluorescence polarisation inhibition, Mcl-1 FP” value is 57.15% @ 10 μM. As for `CCc1sc2ncnc(N[C@@H](Cc3ccccc3)C(=O)O)c2c1-c1ccc(OCCN(C)C)c(Cl)c1C` [Example 58, N-((5Ra)-5-{3-chloro-4-[2-(dimethylamino)ethoxy]-2-methylphenyl}-6-ethylthieno[2,3-d]pyrimidin-4-yl)-L-phenylalanine], the “percentage fluorescence polarisation inhibition, Mcl-1 FP” value is 52.8% @ 10 μM.

Still in this assay, the particulars now being: partial inhibitors; @ 66.7 μM test compound.
For the molecule `CCc1sc2ncnc(NC(Cc3ccccn3)C(=O)O)c2c1-c1cccc(Cl)c1C` [Example 151, N-[(5Ra)-5-(3-chloro-2-methylphenyl)-6-ethylthieno[2,3-d]pyrimidin-4-yl]-3-pyridin-2-yl-D-alanine], the “percentage fluorescence polarisation inhibition, Mcl-1 FP” value is 71.3% @ 66.7 μM.

The assay is the same for the next values; noted with them: partial inhibitors; @ 100 μM test compound; 100 µM.
For the molecule `CC(O)c1sc2ncnc(N[C@H](Cc3ccccc3)C(=O)O)c2c1-c1cccc2ccccc12` (single isomer, unassigned) [Example 203, N-[6-(1-hydroxyethyl)-5-(naphthalen-1-yl)thieno[2,3-d]pyrimidin-4-yl]-D-phenylalanine], the “percentage fluorescence polarisation inhibition, Mcl-1 FP” value amounted to 71.85% @ 100 μM.

The assay is the same for the next values; noted with them: partial inhibitors; @ 200 μM test compound.
With `CCc1sc2ncnc(N[C@H](Cc3ccccc3)C(=O)O)c2c1-c1ccnc(Cl)c1C` [Example 77, N-[(5Ra)-5-(2-chloro-3-methylpyridin-4-yl)-6-ethylthieno[2,3-d]pyrimidin-4-yl]-D-phenylalanine], the “percentage fluorescence polarisation inhibition, Mcl-1 FP” value came to 75.45% @ 200 μM.

`CCc1sc2ncnc(N[C@H](Cc3ccccc3)C(=O)OC)c2c1-c1cccc2ccccc12` [Example 254, methyl N-[6-ethyl-(5Sa)-5-(naphthalen-1-yl)thieno[2,3-d]pyrimidin-4-yl]-D-phenylalaninate]: the “percentage fluorescence polarisation inhibition, Mcl-1 FP” value is 22.08% @ 200 μM. As to `CCc1sc2ncnc(NC(Cc3ccccc3)C(=O)OC)c2c1-c1cccc2ccccc12` [Example 255, methyl N-[6-ethyl-(5Ra)-5-(naphthalen-1-yl)thieno[2,3-d]pyrimidin-4-yl]-D-phenylalaninate], the “percentage fluorescence polarisation inhibition, Mcl-1 FP” value was determined as 41.08% @ 200 μM.
